Data on six compounds can be found in paper PMC8406319, “The dCache Chemoreceptor TlpA of Helicobacter pylori Binds Multiple Attractant and Antagonistic Ligands via Distinct Sites” (mBio, 2021).

Where a name gives a salt, the structure may show the parent alone. Read-outs that look alike come from different tables or passages of the source. A value given as a limit tells only on which side of the number the result lay.

The target in one test is T1, TlpALBD (TlpAWT) (Helicobacter pylori, UniProt O24925).
T1 sequence (O24925 28-299): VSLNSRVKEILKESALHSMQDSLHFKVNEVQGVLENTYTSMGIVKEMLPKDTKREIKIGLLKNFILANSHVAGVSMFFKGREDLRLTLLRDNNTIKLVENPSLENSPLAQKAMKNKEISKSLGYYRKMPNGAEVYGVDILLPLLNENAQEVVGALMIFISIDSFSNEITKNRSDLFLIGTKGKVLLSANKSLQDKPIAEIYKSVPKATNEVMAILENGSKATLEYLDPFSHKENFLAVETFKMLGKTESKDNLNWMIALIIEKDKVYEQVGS
Kind of test: biochemical. The settings on record: SPR. From the text:
(§1) The periplasmic portion of TlpA (TlpALBD), amino acids 28 to 299, from Helicobacter pylori SS1 was cloned into a pBH4 expression vector (pBH4_TlpALBD) to generate an N-terminal 6×His-tagged construct, with a tobacco etch virus (TEV) protease site, under the control of isopropyl-β-D-thiogalactopyranoside (IPTG) ([19]). […] TlpALBD and all point mutants were purified as described previously by Sweeney et al. ([19]).
(§2) Purified TlpALBD was immobilized on a CM5 series S sensor chip, and binding affinities were tested using a Biacore S200 instrument (GE Healthcare) as described previously ([39], [57], [59]). Briefly, proteins were captured using an amine-coupling kit (GE Healthcare), in which the carboxylmethyl dextran matrix of the sensor chip was activated by the injection of a mixture of 0.2 M 1-ethyl-3-[(3-dimethylamino)propyl]-carbodiimide (EDC) and 0.05 M N-hydroxysuccinimide (NHS), followed by the neutralization of the remaining unreacted NHS ester groups by the injection of 1 M ethanolamine-HCl (pH 8.0). Purified TlpALBD was diluted in 10 mM sodium acetate buffer (pH 4.5) at a concentration of 100 μg/ml for immobilization to the chip. A total of 8,400 response units (RU) of TlpALBD were captured on flow cell 2. As a negative control, flow cell 1 was a blank control undergoing the same treatment as the other flow paths, without the protein injection. This set enabled double-reference subtraction of the responses (2 − 1, 3 − 1, and 4 − 1). The tested compounds were prepared as a stock concentration of 100 to 200 mM in PBS. The compounds were then diluted between 1 nM and 1 mM in a series of 1:10 dilutions in PBS and run over the flow cells at a flow rate of 30 μl/min. Between each sample testing, a series of buffer-only injections was run to enable double-blank subtraction for the sensorgram assessment. […] The data sets were analyzed using Biacore S200 evaluation software 2.0.2; sensorgrams were double-reference subtracted.

The next test concerns the target T2, TlpAD254A (Helicobacter pylori, UniProt O24925, D254A).
T2 sequence (O24925 28-299 D254A): T1 sequence (O24925 28-299)
Kind of test: biochemical.
Excerpt: as §1, §2

For the next test, the target named is T3, TlpAM183A (Helicobacter pylori, UniProt O24925, M183A).
T3 sequence (O24925 28-299 M183A): T1 sequence (O24925 28-299)
Kind of test: biochemical.
Excerpt: as §1, §2

A further test deals with T4, TlpAY252A (Helicobacter pylori, UniProt O24925, Y252A).
T4 sequence (O24925 28-299 Y252A): T1 sequence (O24925 28-299)
Kind of test: biochemical.
Excerpt: as §1, §2

For a further test, the target named is T5, TlpAD165A (Helicobacter pylori, UniProt O24925, D165A).
T5 sequence (O24925 28-299 D165A): T1 sequence (O24925 28-299)
As to the kind of experiment: biochemical.
Excerpt: as §1, §2

For a further test, the target named is T6, TlpAY228A (Helicobacter pylori, UniProt O24925, Y228A).
T6 sequence (O24925 28-299 Y228A): T1 sequence (O24925 28-299)
Kind of test: biochemical.
Excerpt: as §1, §2

Another test relates to H. pylori PMSS1 WT. As to the kind of experiment: Temporal chemotaxis assay (live-cell video microscopy, direction changes), WT. The class given is cell-based, Helicobacter pylori. The settings on record: for Chemotactic response (direction changes vs mock): WT, 0.1, 1, 10 mM tested, acidic ligand stocks pH neutralized with NaOH, 10 mM most significant; for Chemotactic response, ligand stock pH not adjusted: acidic in solution, unadjusted pH. As for the experimental part:
H. pylori chemotactic responses toward the seven putative TlpA-dependent ligands were examined by a live-cell video microscopy assay that measures the temporal chemotaxis response to test ligands. […] Acidic conditions are sensed by chemoreceptors other than TlpA ([24], [29], [31]) and potentially mask chemotactic responses to the ligands being tested.
Cultures of H. pylori PMSS1 WT and ΔtlpA strains were grown overnight, back-diluted, and then incubated until an OD600 of 0.12 to 0.15 was reached. Cultures were treated with water (Mock) or various concentrations of compounds, as indicated. […] The cells were immediately filmed, and direction changes were counted over a 3-s swimming period in at least 100 cells per treatment from 3 biological replicates. Data are normalized to the values for the untreated control for each strain, as described in Materials and Methods. Error bars represent the standard errors of the means. *, P < 0.05; **, P < 0.01; ***, P < 0.001 (comparisons to the untreated control per strain using two-way ANOVA with Dunnett’s multiple-comparison test).
Swimming behavior assays were done with H. pylori PMSS1 strains grown in BB10 as described above. Cultures grown overnight were diluted to an optical density at 600 nm (OD600) of 0.1 in fresh BB10 and then incubated with shaking as described above until an OD600 of 0.12 to 0.15 was reached. […] The number of direction changes in a bacterial swimming trajectory was enumerated over a 3-s interval to determine whether each putative ligand is sensed as an attractant or repellent or elicits no response ([20], [25][–][30]). […] Each control is sensed by chemoreceptors other than TlpA ([24], [25], [29], [31]). The pH of BB10 upon treatment was independently assessed using a Denver Instruments pH meter. […] Therefore, to be able to compare the results to those of previous experiments, we continued resuspending acidified ligands in pure water and then adjusting the pH of the resuspended ligand using NaOH. Cultures were filmed immediately after ligand addition at a ×400 magnification using a Hamamatsu C4742-95 digital camera with μManager software (version 1.4.22), mounted on a Nikon Eclipse E600 phase-contrast microscope. For the competition chemotaxis assay, cultures of H. pylori and ligands were prepared as described above. However, 1 min after the addition of a nonchemoactive ligand at a final concentration of 10 mM, a chemoactive ligand was added at a final concentration of 10 mM, and the cultures were then filmed as described above. Videos were relabeled to blind the observer to the strain identity. For each sample, >100 3-s-long bacterial tracks from three independent cultures were analyzed manually to identify stops followed by direction changes. Data for all biological replicates under each condition were combined, and the average number of direction changes in 3 s and the standard error of the mean were calculated. For each strain, data were normalized to the values for the untreated control under each experimental condition. Statistical analysis of the data for treated versus untreated samples was performed using two-way analysis of variance (ANOVA) and Dunnett’s multiple-comparison test.

Where [1] appears, read: Mean binding affinity ± SD, Table 1, n = 3.
The mark [2] stands for this setting: dissociation constant [Kd], WT TlpALBD.

Take `N[C@H]1C(O)O[C@H](CO)[C@@H](O)[C@@H]1O` (stereo partly drawn) [Glucosamine, D(+)-glucosamine hydrochloride]: the Kd at TlpALBD (TlpAWT) (setting [1]) is 10.5 ± 2.8 µM; at TlpALBD (TlpAWT) (setting [2]), < 10 µM; on TlpAD254A, 9.84 ± 3.7 µM; on TlpAM183A it was 94.6 ± 57.3 µM; at TlpAY252A, 2.96 ± 0.7 µM; at TlpAD165A it was 96 ± 24.3 µM. The Kd at TlpAY228A (read-out: Mean binding affinity ± SD, TlpAY228A, SPR, membrane-proximal mutant, n = 3) turned out to be 17.1 µM. In the test with H. pylori PMSS1 WT, the “Chemotactic response (direction changes vs mock)” value is “no significant direction changes”.

With `N=C(N)NCCC[C@H](N)C(=O)O` [Arginine, L-arginine monohydrochloride], the Kd at TlpALBD (TlpAWT) (setting [1]) is 2 ± 0.11 µM; at TlpALBD (TlpAWT) (setting [2]), < 10 µM; on TlpAD254A it was 3.71 ± 0.73 µM; at TlpAM183A, 22.3 ± 5.9 µM; on TlpAY252A it was 4.96 ± 1.8 µM; at TlpAD165A it was 12.4 ± 0.84 µM. At TlpAY228A, this compound showed a Kd of 8.3 ± 1.6 µM. Besides, in the test on H. pylori PMSS1 WT, the “Chemotactic response (direction changes vs mock)” value was “fewer direction changes”.

Turning to `N[C@@H](CS)C(=O)O` [Cysteine, L-cysteine hydrochloride monohydrate], the Kd was 4.7 ± 0.3 µM on TlpALBD (TlpAWT) (setting [1]); < 10 µM at TlpALBD (TlpAWT) (setting [2]); 4.58 ± 1.5 µM on TlpAD254A; 36.1 ± 15.7 µM at TlpAM183A; 5.5 ± 0.8 µM on TlpAY252A; 41.9 ± 0.4 µM at TlpAD165A. The compound also came in with a Kd on TlpAY228A of 15.7 ± 6.6 µM. Besides, the “Chemotactic response (direction changes vs mock)” value in the test with H. pylori PMSS1 WT is “fewer direction changes”. Besides, the “Chemotactic response, ligand stock pH not adjusted” value in the test with H. pylori PMSS1 WT is “significant TlpA-independent chemorepellent responses”.

Consider `O=C(O)/C=C/C(=O)O` [Fumarate, sodium fumarate], for which the Kd is 10 ± 1.53 µM at TlpALBD (TlpAWT) (setting [1]); < 10 µM at TlpALBD (TlpAWT) (setting [2]); 44 ± 8.1 µM at TlpAD254A; 106 ± 36.6 µM on TlpAM183A; 8.5 ± 1.7 µM at TlpAY252A; 100 ± 38.9 µM at TlpAD165A. At TlpAY228A, this compound came in with a Kd of 46.6 ± 3.9 µM. Also, on TlpAD254A (membrane-proximal mutant vs WT), the “Effect of TlpAD254A mutation on binding” value is reported as “affected only fumarate binding”. For the same compound, the “Chemotactic response (direction changes vs mock)” value with H. pylori PMSS1 WT is “fewer direction changes”.

In the case of `Cc1ncc(C[n+]2csc(CCO)c2C)c(N)n1` [Thiamine, thiamine hydrochloride], the Kd on TlpALBD (TlpAWT) (setting [1]) was 60 ± 0.6 µM; at TlpALBD (TlpAWT) (setting [2]), > 45 µM; on TlpAD254A it was 39.3 ± 4.3 µM; at TlpAM183A, 18.1 ± 1.2 µM; at TlpAY252A, 35 ± 7.3 µM; at TlpAD165A, 43.9 ± 14.1 µM. Moreover, the Kd at TlpAY228A stood at 29.5 ± 12.3 µM. For the same compound, in the test on H. pylori PMSS1 WT, the “Chemotactic response (direction changes vs mock)” value was “no significant direction changes”. In the test with H. pylori PMSS1 WT, the “Chemotactic response, ligand stock pH not adjusted” value is “significant TlpA-independent chemorepellent responses”.

With `O=C(O)C[C@H](O)C(=O)O` [Malic acid, L-malic acid], the Kd at TlpALBD (TlpAWT) (setting [1]) was 46 ± 17 µM; at TlpALBD (TlpAWT) (setting [2]), > 45 µM; on TlpAD254A, 29.3 ± 2 µM; on TlpAM183A, 33.6 ± 6.2 µM; at TlpAY252A, 14.2 ± 6.2 µM; on TlpAD165A, 11.9 ± 4.3 µM. Moreover, the Kd on TlpAY228A was 28.6 ± 9.4 µM. For the same compound, in the test on H. pylori PMSS1 WT, the “Chemotactic response (direction changes vs mock)” value is reported as “no significant direction changes”. Besides, the “Chemotactic response, ligand stock pH not adjusted” value in the test on H. pylori PMSS1 WT is recorded as “significant TlpA-independent chemorepellent responses”.
